Source: US7605272B2, “IGF-1R inhibitor” (Kyowa Hakko Kirin Co., Ltd., priority 2005, dated 2009)
Counter-ions that a name gives are not always drawn.

Molecular target: T1, IGF-1R (Homo sapiens, UniProt P08069)
T1 construct: purchased Upstate Co. 14-465
Assay: IGF-1R inhibitory activity (kinase reaction, time-resolved fluoroimmunoassay)
Assay type: biochemical
Conditions: IGF-1R active recombinant enzyme, test compound 10 μmol/L
Procedure: The IGF-1R inhibitory activity was measured in the following manner.
As IGF-1R, active recombinant enzyme (Catalog No. 14-465) purchased from Upstate Co., was used. To 96 well plate (FIA-PLATE BLACK 96 well FALT-BOTTOM HIGH BINDING, Greiner Bio-one, Catalog No. 655077) coated with NeutroAvidin (Pierce, Catalog No. 31000), biotinylated polyglutamic acid-tyrosine peptide (Nihon Schering K.K., Catalog No. 61GT0BAA) was immobilized and then blocked with 0.25% gelatin to be used as a plate for measuring the kinase reaction. Separately was prepared a solution containing at final concentrations, IGF-1R (200 μg/L), Tris.HCl(pH 7.5)(20 mmol/L), Na3VO4(0.1 mmol/L), MgCl2(1 mmol/L), MnCl2(10 mmol/L), ATP(10 mmol/L), 2-mercaptoethanol (0.04%), BSA(Bovine Serum Albumin) (0.1%), DMSO(0.1%), test compound (10 μmol/L). The solution (each 50 μL) was added to the well of the plate for measuring the kinase reaction and then, enzyme reaction was performed for 30 minutes at 24° C. The plate was washed with TBS-T [10 mmol/L Tris Cl (pH 7.5), 150 mmol/L NaCl, 0.05% Tween 20 (Bio-Rad, Catalog No. 170-6531)] 4 times, then reacted with europium-labeled anti-phosphotyrosine antibody, further washed with TBS-T 4 times and then, measured with time-resolved fluoroimmunoassay (excitation wavelength 340 nm, measuring wavelength 615 nm). The value of a well to which the test compound had not been added was considered as 100% and that of a well where the enzyme and the test compound had not been added was considered as 0%. The relative activity (%) of the well which was added with enzyme and the test compound was measured and by subtracting the calculated value from 100, IGF-1R inhibitory activity of the test compound (%) was determined.

T1 sequence (P08069 959-1367 limits assumed): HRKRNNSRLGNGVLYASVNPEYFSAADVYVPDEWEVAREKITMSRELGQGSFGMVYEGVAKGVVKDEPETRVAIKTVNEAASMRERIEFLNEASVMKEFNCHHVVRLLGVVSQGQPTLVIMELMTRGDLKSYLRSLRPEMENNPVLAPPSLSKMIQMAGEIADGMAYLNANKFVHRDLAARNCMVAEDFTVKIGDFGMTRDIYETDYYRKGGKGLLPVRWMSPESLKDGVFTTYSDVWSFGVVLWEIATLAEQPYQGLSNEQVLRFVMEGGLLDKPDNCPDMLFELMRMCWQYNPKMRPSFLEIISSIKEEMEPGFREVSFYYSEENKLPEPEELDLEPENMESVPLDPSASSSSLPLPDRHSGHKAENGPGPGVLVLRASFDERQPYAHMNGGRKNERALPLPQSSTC

SMILES	inhibition at 10 µM [%]
CN(C)C(=O)c1nc(-c2ccccc2/C=C/c2n[nH]c3ccccc23)no1 [Compound 176, (E)-N,N-dimethyl-3-{2-[2-(1H-indazol-3-yl)vinyl]phenyl}[1,2,4]oxadiazole-5-carboxamide]	100
O=C(O)c1csc(Nc2ccccc2/C=C/c2n[nH]c3ccccc23)n1 [Compound 170, (E)-2-{2-[2-(1H-indazol-3-yl)vinyl]phenylamino}thiazole-4-carboxylic acid]	69.8
Nc1ccc2oc(-c3ccccc3/C=C/c3n[nH]c4ccccc34)nc2c1 [Compound 185, (E)-2-{2-[2-(1H-indazol-3-yl)vinyl]phenyl}benzoxazol-5-ylamine]	93.2
Cc1cc(CO)c(C)n1-c1ccccc1/C=C/c1n[nH]c2ccccc12 [Compound 191, (E)-1-{2-[2-(1H-indazol-3-yl)vinyl]phenyl}-2,5-dimethyl-1H-pyrrol-3-ylmethanol]	102
O=C(Nc1ccccc1/C=C/c1n[nH]c2ccccc12)c1ccc(CN2CCOCC2)cc1 [Compound 80, (E)-N-{2-[2-(1H-indazol-3-yl)vinyl]phenyl}-4-(morpholin-4-ylmethyl)benzamide]	96.6
O=C1c2ccc(Cl)cc2C(=O)N1c1ccccc1/C=C/c1n[nH]c2ccccc12 [Compound 196, (E)-5-chloro-2-{2-[2-(1H-indazol-3-yl)vinyl]phenyl}isoindole-1,3-dione]	99.8

Further lines, results first:

inhibition at 10 µM [%]	SMILES
98.9	O=C1c2ccccc2C(=O)N1c1ccc(F)cc1/C=C/c1n[nH]c2ccccc12 [Compound 250, (E)-2-{4-fluoro-2-[2-(1H-indazol-3-yl)vinyl]phenyl}isoindole-1,3-dione]
99.8	CC1=C(C)C(=O)N(c2ccccc2/C=C/c2n[nH]c3ccccc23)C1=O [Compound 204, (E)-1-{2-[2-(1H-indazol-3-yl)vinyl]phenyl}-3,4-dimethylpyrrole-2,5-dione]
101	Cc1ccc2c(c1)C(=O)N(c1ccccc1/C=C/c1n[nH]c3ccccc13)C2=O [Compound 197, (E)-2-{2-[2-(1H-indazol-3-yl)vinyl]phenyl}-5-methylisoindole-1,3-dione]
101	O=C1C2=C(CCCC2)C(=O)N1c1ccccc1/C=C/c1n[nH]c2ccccc12 [Compound 203, (E)-2-{2-[2-(1H-indazol-3-yl)vinyl]phenyl}-4,5,6,7-tetrahydroisoindole-1,3-dione]
87.2	O=C1c2ccncc2C(=O)N1c1ccccc1/C=C/c1n[nH]c2ccccc12 [Compound 198, (E)-2-{2-[2-(1H-indazol-3-yl)vinyl]phenyl}pyrrolo[3,4-c]pyridine-1,3-dione hydrochloride]
67.5	O=C1c2cccc(O)c2C(=O)N1c1ccccc1/C=C/c1n[nH]c2ccccc12 [Compound 200, (E)-4-hydroxy-2-{2-[2-(1H-indazol-3-yl)vinyl]phenyl}isoindole-1,3-dione]
103	CN1CCN(C(=O)c2ccc(/C=C/c3n[nH]c4ccccc34)c(N3Cc4cccc(N)c4C3=O)c2)CC1 [Compound 316, (E)-7-amino-2-{2-[2-(1H-indazol-3-yl)vinyl]-5-(4-methylpiperazin-1-ylcarbonyl)phenyl}-2,3-dihydroisoindole-1-one]

Same assay, conditions: test compound 10 μmol/L

inhibitory activity (%) at 10 μmol/L [%]	inhibition at 10 µM [%]	SMILES
101.9	–	COC1CCN(C(=O)c2ccc(/C=C/c3n[nH]c4ccccc34)c(NC(=O)c3sccc3C)c2)CC1.Cl [Compound 127, (E)-N-{2-[2-(1H-indazol-3-yl)vinyl]-5-(4-methoxypiperidin-1-ylcarbonyl)phenyl}-3-methylthiophene-2-carboxamide hydrochloride]
–	70.6	COc1cccc(/C=C/c2n[nH]c3ccccc23)c1N [Compound 93, (E)-2-[2-(1H-indazol-3-yl)vinyl]-6-methoxyphenylamine]
–	98.8	Cc1ccsc1C(=O)Nc1cc(C(=O)N2CCN(C)CC2)ccc1/C=C/c1n[nH]c2ccccc12 [Compound 126, (E)-N-{2-[2-(1H-indazol-3-yl)vinyl]-5-(4-methylpiperazin-1-ylcarbonyl)phenyl}-3-methylthiophene-2-carboxamide]
